Source: US10045983B2, “Heteroaryl pyridone and aza-pyrodine compounds” (Genentech, Inc., priority 2011, dated 2018)

Assay: CD69 Whole Blood Assay (CD69 Hu Blood FACS)
Type: cell-based, human
Conditions: Lymphocyte; human whole blood, anti-IgM activated B lymphocytes, FACS; IC70; Table 2 (unit inferred); read-out: CD69 Hu Blood FACS (IC70)
Outline: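 Compounds tested for blocking B-cell CD69 induction by flow cytometry in human whole blood, with activation via anti-human IgM goat F(ab′)2 crosslinking of surface IgM.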

SMILES	IC70 [nM]
CNC(=O)c1c(-c2cc(Nc3ccc(N4CCN(C5COC5)C[C@@H]4C)cn3)c(=O)n(C)c2)ccnc1N1CCn2c(cc3c2CC(C)(C)C3)C1=O [Example 211, 2-(7,7-dimethyl-4-oxo-1,2,6,8-tetrahydrocyclopenta[3,4]pyrrolo[3,5-b]pyrazin-3-yl)-N-methyl-4-[1-methyl-5-[[5-[(2S)-2-methyl-4-(oxetan-3-yl)piperazin-1-yl]-2-pyridyl]amino]-6-oxo-3-pyridyl]pyridine-3-carboxamide]	2100
CC(=O)N1CCn2nc(Nc3cc(-c4ccnc(N5CCn6c(cc7c6CC(C)(C)C7)C5=O)c4CO)cn(C)c3=O)cc2C1 [Example 212, 3-[4-[5-[(5-acetyl-6,7-dihydro-4H-pyrazolo[1,5-a]pyrazin-2-yl)amino]-1-methyl-6-oxo-3-pyridyl]-3-(hydroxymethyl)-2-pyridyl]-7,7-dimethyl-1,2,6,8-tetrahydrocyclopenta[3,4]pyrrolo[3,5-b]pyrazin-4-one]	15.2
Cc1nccc(Nc2cc(-c3ccnc(N4CCn5c6c(c(F)c5C4=O)CCCC6)c3CO)cn(C)c2=O)n1 [Example 213, 10-fluoro-2-[3-(hydroxymethyl)-4-[1-methyl-5-[(2-methylpyrimidin-4-yl)amino]-6-oxo-3-pyridyl]-2-pyridyl]-3,4,6,7,8,9-hexahydropyrazino[1,2-a]indol-1-one]	620
Cn1cc(-c2ccnc(N3CCn4c(cc5c4CC(C)(C)C5)C3=O)c2CO)cc(Nc2nc3c(s2)COCC3)c1=O [Example 214, 3-[4-[5-(6,7-dihydro-4H-pyrano[4,3-d]thiazol-2-ylamino)-1-methyl-6-oxo-3-pyridyl]-3-(hydroxymethyl)-2-pyridyl]-7,7-dimethyl-1,2,6,8-tetrahydrocyclopenta[3,4]pyrrolo[3,5-b]pyrazin-4-one]	124
Cc1nccc(Nc2cc(-c3cncc(N4CCn5c(cc6c5CC(C)(C)C6)C4=O)c3CO)cn(C)c2=O)n1 [Example 215, 3-[4-(hydroxymethyl)-5-[1-methyl-5-[(2-methylpyrimidin-4-yl)amino]-6-oxo-3-pyridyl]-3-pyridyl]-7,7-dimethyl-1,2,6,8-tetrahydrocyclopenta[3,4]pyrrolo[3,5-b]pyrazin-4-one]	457
CN1CCc2nc(Nc3cc(-c4ccnc(-n5ncc6c7c(sc6c5=O)CCCC7)c4CO)cn(C)c3=O)sc2C1 [Example 216, 3-[3-(hydroxymethyl)-4-[1-methyl-5-[(5-methyl-6,7-dihydro-4H-thiazolo[5,4-c]pyridin-2-yl)amino]-6-oxo-3-pyridyl]-2-pyridyl]-6,7,8,9-tetrahydrobenzothiopheno[2,3-d]pyridazin-4-one]	357
Cn1cc(-c2ccnc(N3CCn4c(cc5c4CCCC5)C3=O)c2CO)cc(Nc2ccc3[nH]cnc3n2)c1=O [Example 217, 2-[3-(hydroxymethyl)-4-[5-(1H-imidazo[4,5-b]pyridin-5-ylamino)-1-methyl-6-oxo-3-pyridyl]-2-pyridyl]-3,4,6,7,8,9-hexahydropyrazino[1,2-a]indol-1-one]	2900
Cc1cc(Nc2cc(-c3ccnc(N4CCn5c(cc6c5CC(C)(C)C6)C4=O)c3CO)cn(C)c2=O)nn1C [Example 218, 3-[4-[5-[(1,5-dimethylpyrazol-3-yl)amino]-1-methyl-6-oxo-3-pyridyl]-3-(hydroxymethyl)-2-pyridyl]-7,7-dimethyl-1,2,6,8-tetrahydrocyclopenta[3,4]pyrrolo[3,5-b]pyrazin-4-one]	74.1
Cn1cc(-c2ccnc(N3CCn4c(cc5c4CC(C)(C)C5)C3=O)c2CO)nc(Nc2cccc(N)c2)c1=O [Example 219, 3-[4-[6-(3-aminoanilino)-4-methyl-5-oxo-pyrazin-2-yl]-3-(hydroxymethyl)-2-pyridyl]-7,7-dimethyl-1,2,6,8-tetrahydrocyclopenta[3,4]pyrrolo[3,5-b]pyrazin-4-one]	204
C[C@H]1CN(C2COC2)CCN1c1ccc(Nc2cc(-c3ccnc(N4CCn5c(cc6c5CCCC6)C4)c3CO)cn(C)c2=O)nc1 [Example 220, 5-[2-(3,4,6,7,8,9-hexahydro-1H-pyrazino[1,2-a]indol-2-yl)-3-(hydroxymethyl)-4-pyridyl]-1-methyl-3-[[5-[(2S)-2-methyl-4-(oxetan-3-yl)piperazin-1-yl]-2-pyridyl]amino]pyridin-2-one]	1600
Cn1cc(-c2ccnc(N3CCn4c(cc5c4CC(C)(C)C5)C3=O)c2CO)cc(Nc2cccc(N)n2)c1=O [Example 221, 3-[4-[5-[(6-amino-2-pyridyl)amino]-1-methyl-6-oxo-3-pyridyl]-3-(hydroxymethyl)-2-pyridyl]-7,7-dimethyl-1,2,6,8-tetrahydrocyclopenta[3,4]pyrrolo[3,5-b]pyrazin-4-one]	121
Cc1nccc(Nc2cc(-c3ccnc(N4CCn5c(cc6c5CC(C)(C)C6)C4=O)c3CO)c[nH]c2=O)n1 [Example 222, 3-[3-(hydroxymethyl)-4-[5-[(2-methylpyrimidin-4-yl)amino]-6-oxo-1H-pyridin-3-yl]-2-pyridyl]-7,7-dimethyl-1,2,6,8-tetrahydrocyclopenta[3,4]pyrrolo[3,5-b]pyrazin-4-one]	178
CN1CCc2nc(Nc3cc(-c4ccnc(N5CCn6c7c(c(F)c6C5=O)CCCC7)c4CO)cn(C)c3=O)sc2C1 [Example 223, 10-fluoro-2-[3-(hydroxymethyl)-4-[1-methyl-5-[(5-methyl-6,7-dihydro-4H-thiazolo[5,4-c]pyridin-2-yl)amino]-6-oxo-3-pyridyl]-2-pyridyl]-3,4,6,7,8,9-hexahydropyrazino[1,2-a]indol-1-one]	430
C[C@H]1CN(C2COC2)CCN1c1ccc(Nc2cc(-c3ccnc(N4CCn5c(cc6c5CC(C)(C)C6)C4=O)c3CO)nn(C)c2=O)nc1 [Example 224, 3-[3-(hydroxymethyl)-4-[1-methyl-5-[[5-[(2S)-2-methyl-4-(oxetan-3-yl)piperazin-1-yl]-2-pyridyl]amino]-6-oxo-pyridazin-3-yl]-2-pyridyl]-7,7-dimethyl-1,2,6,8-tetrahydrocyclopenta[3,4]pyrrolo[3,5-b]pyrazin-4-one]	30.7
Cc1nccc(Nc2cc(-c3ccnc(N4CCn5c(cc6c5CC(C)(C)C6)C4=O)c3CO)nn(C)c2=O)n1 [Example 225, 3-[3-(hydroxymethyl)-4-[1-methyl-5-[(2-methylpyrimidin-4-yl)amino]-6-oxo-pyridazin-3-yl]-2-pyridyl]-7,7-dimethyl-1,2,6,8-tetrahydrocyclopenta[3,4]pyrrolo[3,5-b]pyrazin-4-one]	766
Cn1nc(-c2ccnc(N3CCn4c(cc5c4CC(C)(C)C5)C3=O)c2CO)cc(Nc2ccc(C(=O)N3CCOCC3)cn2)c1=O [Example 226, 3-[3-(hydroxymethyl)-4-[1-methyl-5-[[5-(morpholine-4-carbonyl)-2-pyridyl]amino]-6-oxo-pyridazin-3-yl]-2-pyridyl]-7,7-dimethyl-1,2,6,8-tetrahydrocyclopenta[3,4]pyrrolo[3,5-b]pyrazin-4-one]	117
Cn1nc(-c2ccnc(N3CCn4c(cc5c4CCCC5)C3=O)c2CO)cc(Nc2ccc(C(=O)N3CCOCC3)cn2)c1=O [Example 227, 2-[3-(hydroxymethyl)-4-[1-methyl-5-[[5-(morpholine-4-carbonyl)-2-pyridyl]amino]-6-oxo-pyridazin-3-yl]-2-pyridyl]-3,4,6,7,8,9-hexahydropyrazino[1,2-a]indol-1-one]	730
C[C@H]1CN(C2COC2)CCN1c1cnc(Nc2cc(-c3ccnc(N4CCn5c(cc6c5CCCC6)C4=O)c3CO)cn(C)c2=O)cn1 [Example 228, 2-[3-(hydroxymethyl)-4-[1-methyl-5-[[5-[(2S)-2-methyl-4-(oxetan-3-yl)piperazin-1-yl]pyrazin-2-yl]amino]-6-oxo-3-pyridyl]-2-pyridyl]-3,4,6,7,8,9-hexahydropyrazino[1,2-a]indol-1-one]	369
CCc1nccc(Nc2cc(-c3ccnc(N4CCn5c(cc6c5CC(C)(C)C6)C4=O)c3CO)cn(C)c2=O)n1 [Example 229, 3-[4-[5-[(2-ethylpyrimidin-4-yl)amino]-1-methyl-6-oxo-3-pyridyl]-3-(hydroxymethyl)-2-pyridyl]-7,7-dimethyl-1,2,6,8-tetrahydrocyclopenta[3,4]pyrrolo[3,5-b]pyrazin-4-one]	583
C[C@H]1CN(C2COC2)CCN1c1cnc(Nc2cc(-c3ccnc(-n4ncc5c6c(sc5c4=O)CCCC6)c3CO)cn(C)c2=O)cn1 [Example 230, 3-[3-(hydroxymethyl)-4-[1-methyl-5-[[5-[(2S)-2-methyl-4-(oxetan-3-yl)piperazin-1-yl]pyrazin-2-yl]amino]-6-oxo-3-pyridyl]-2-pyridyl]-6,7,8,9-tetrahydrobenzothiopheno[2,3-d]pyridazin-4-one]	179
C[C@H]1CN(C2COC2)CCN1c1ccc(Nc2cc(-c3ccnc(N4CCn5c6c(c(F)c5C4=O)CCCC6)c3CO)nn(C)c2=O)nc1 [Example 231, 10-fluoro-2-[3-(hydroxymethyl)-4-[1-methyl-5-[[5-[(2S)-2-methyl-4-(oxetan-3-yl)piperazin-1-yl]-2-pyridyl]amino]-6-oxo-pyridazin-3-yl]-2-pyridyl]-3,4,6,7,8,9-hexahydropyrazino[1,2-a]indol-1-one]	62.4
CN1CCC(c2ccc(Nc3cc(-c4ccnc(N5CCn6c(cc7c6CCCC7)C5=O)c4CO)cn(C)c3=O)nc2)CC1 [Example 232, 2-[3-(hydroxymethyl)-4-[1-methyl-5-[[5-(1-methyl-4-piperidyl)-2-pyridyl]amino]-6-oxo-3-pyridyl]-2-pyridyl]-3,4,6,7,8,9-hexahydropyrazino[1,2-a]indol-1-one]	51.8
Cn1cc(-c2ccnc(N3CCn4c(cc5c4CC(C)(C)C5)C3=O)c2CO)cc(Nc2nc3c(s2)CNCC3)c1=O [Example 233, 3-[3-(hydroxymethyl)-4-[1-methyl-6-oxo-5-(4,5,6,7-tetrahydrothiazolo[5,4-c]pyridin-2-ylamino)-3-pyridyl]-2-pyridyl]-7,7-dimethyl-1,2,6,8-tetrahydrocyclopenta[3,4]pyrrolo[3,5-b]pyrazin-4-one]	65.7
